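In this assay, cells in 96-well plates receive the compound at five concentrations for 48 hours. Endpoints are linearly interpolated between the surrounding concentrations. GI50 = concentration required for 50% inhibition of growth.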 Calls of active or inactive are those of the source. Cut-off read from the data, not from the text of the source: active = GI50 up to about 1.1 µM and inactive = higher.
What was measured:
Assay in all cases: inhibition of tumour cell growth, NCI panel, 48 h
SF-539 = tested on: SF-539
K562 = tested on: K562
NCI-H522 = tested on: NCI-H522
CAKI-1 = tested on: CAKI-1
HOP-18 = tested on: HOP-18
MOLT-4 = tested on: MOLT-4
SK-OV-3 = tested on: SK-OV-3
UACC-62 = tested on: UACC-62
SNB-78 = tested on: SNB-78
KM12 = tested on: KM12
DMS-273 = tested on: DMS-273
OVCAR-3 = tested on: OVCAR-3
TK-10 = tested on: TK-10
RPMI-8226 = tested on: RPMI-8226
786-0 = tested on: 786-0
ACHN = tested on: ACHN
IGROV-1 = tested on: IGROV-1
A549 = tested on: A549
COLO 205 = tested on: COLO 205
OVCAR-5 = tested on: OVCAR-5
DMS-114 = tested on: DMS-114
HOP-92 = tested on: HOP-92
Malme-3M = tested on: Malme-3M
OVCAR-8 = tested on: OVCAR-8
NCI-H226 = tested on: NCI-H226
SW-620 = tested on: SW-620
SNB-19 = tested on: SNB-19
A498 = tested on: A498
HOP-62 = tested on: HOP-62
RXF 393 = tested on: RXF 393
M19-MEL = tested on: M19-MEL
SF-295 = tested on: SF-295
DLD-1 = tested on: DLD-1
HCC 2998 = tested on: HCC 2998
SN12C = tested on: SN12C
SF-268 = tested on: SF-268
HCT-116 = tested on: HCT-116
KM-20L2 = tested on: KM-20L2
LOX IMVI = tested on: LOX IMVI
UO-31 = tested on: UO-31
HT-29 = tested on: HT-29
SK-MEL-5 = tested on: SK-MEL-5
HL-60 = tested on: HL-60
CCRF-CEM = tested on: CCRF-CEM
EKVX = tested on: EKVX
SK-MEL-28 = tested on: SK-MEL-28
SK-MEL-2 = tested on: SK-MEL-2
HCT-15 = tested on: HCT-15
NCI-H23 = tested on: NCI-H23
LXFL 529 = tested on: LXFL 529
NCI-H460 = tested on: NCI-H460
XF498 = tested on: XF498
UACC-257 = tested on: UACC-257
M14 = tested on: M14
OVCAR-4 = tested on: OVCAR-4
SR = tested on: SR
SNB-75 = tested on: SNB-75
U-251 = tested on: U-251

SMILES: Nc1ccn(CC(CO)CC(c2ccccc2)P(=O)(O)O)c(=O)n1 (stereo not given)
- GI50 (SF-539): > 100 µM (inactive)
- GI50 (K562): > 100 µM (inactive)
- GI50 (NCI-H522): > 100 µM (inactive)
- GI50 (CAKI-1): > 100 µM (inactive)
- GI50 (HOP-18): < 0.01 µM (active)
- GI50 (MOLT-4): > 100 µM (inactive)
- GI50 (SK-OV-3): > 100 µM (inactive)
- GI50 (UACC-62): > 100 µM (inactive)
- GI50 (SNB-78): > 100 µM (inactive)
- GI50 (KM12): > 100 µM (inactive)
- GI50 (DMS-273): > 100 µM (inactive)
- GI50 (OVCAR-3): > 100 µM (inactive)
- GI50 (TK-10): > 100 µM (inactive)
- GI50 (RPMI-8226): > 100 µM (inactive)
- GI50 (786-0): > 100 µM (inactive)
- GI50 (ACHN): > 100 µM (inactive)
- GI50 (IGROV-1): > 100 µM (inactive)
- GI50 (A549): > 100 µM (inactive)
- GI50 (COLO 205): > 100 µM (inactive)
- GI50 (OVCAR-5): > 100 µM (inactive)
- GI50 (DMS-114): > 100 µM (inactive)
- GI50 (HOP-92): > 100 µM (inactive)
- GI50 (Malme-3M): > 100 µM (inactive)
- GI50 (OVCAR-8): > 100 µM (inactive)
- GI50 (NCI-H226): > 100 µM (inactive)
- GI50 (SW-620): > 100 µM (inactive)
- GI50 (SNB-19): > 100 µM (inactive)
- GI50 (A498): > 100 µM (inactive)
- GI50 (HOP-62): > 100 µM (inactive)
- GI50 (RXF 393): > 100 µM (inactive)
- GI50 (M19-MEL): > 100 µM (inactive)
- GI50 (SF-295): > 100 µM (inactive)
- GI50 (DLD-1): > 100 µM (inactive)
- GI50 (HCC 2998): > 100 µM (inactive)
- GI50 (SN12C): > 100 µM (inactive)
- GI50 (SF-268): > 100 µM (inactive)
- GI50 (HCT-116): > 100 µM (inactive)
- GI50 (KM-20L2): > 100 µM (inactive)
- GI50 (LOX IMVI): > 100 µM (inactive)
- GI50 (UO-31): > 100 µM (inactive)
- GI50 (HT-29): > 100 µM (inactive)
- GI50 (SK-MEL-5): > 100 µM (inactive)
- GI50 (HL-60): > 100 µM (inactive)
- GI50 (CCRF-CEM): > 100 µM (inactive)
- GI50 (EKVX): > 100 µM (inactive)
- GI50 (SK-MEL-28): > 100 µM (inactive)
- GI50 (SK-MEL-2): > 100 µM (inactive)
- GI50 (HCT-15): > 100 µM
- GI50 (NCI-H23): > 100 µM (inactive)
- GI50 (LXFL 529): > 100 µM (inactive)
- GI50 (NCI-H460): > 100 µM (inactive)
- GI50 (XF498): > 100 µM (inactive)
- GI50 (UACC-257): > 100 µM (inactive)
- GI50 (M14): > 100 µM (inactive)

SMILES: Cc1c2c(cc3c(=O)ccn(CCN(C)C)c13)c(=O)ccn2CCN(C)C
- GI50 (SF-539): 15 µM (inactive)
- GI50 (K562): 17.8 µM (inactive)
- GI50 (NCI-H522): 2.31 µM (inactive)
- GI50 (CAKI-1): 16.6 µM (inactive)
- GI50 (HOP-18): 15.7 µM (inactive)
- GI50 (MOLT-4): 3.96 µM (inactive)
- GI50 (SK-OV-3): 8.61 µM (inactive)
- GI50 (UACC-62): 17.2 µM (inactive)
- GI50 (SNB-78): 47.1 µM (inactive)
- GI50 (KM12): 3.08 µM (inactive)
- GI50 (DMS-273): 4.18 µM (inactive)
- GI50 (OVCAR-3): 14.2 µM (inactive)
- GI50 (TK-10): 11.7 µM (inactive)
- GI50 (786-0): 4.13 µM (inactive)
- GI50 (OVCAR-4): 4.4 µM (inactive)
- GI50 (ACHN): 5.4 µM (inactive)
- GI50 (IGROV-1): 12.4 µM (inactive)
- GI50 (A549): 13.7 µM (inactive)
- GI50 (SR): 10.6 µM (inactive)
- GI50 (COLO 205): 11.5 µM (inactive)
- GI50 (OVCAR-5): 13.5 µM (inactive)
- GI50 (DMS-114): 16.3 µM (inactive)
- GI50 (HOP-92): 6.1 µM (inactive)
- GI50 (Malme-3M): 27.4 µM (inactive)
- GI50 (OVCAR-8): 4.76 µM (inactive)
- GI50 (NCI-H226): 14 µM (inactive)
- GI50 (SW-620): 3.81 µM (inactive)
- GI50 (SNB-19): 8.34 µM (inactive)
- GI50 (A498): 21.4 µM (inactive)
- GI50 (HOP-62): 6.62 µM (inactive)
- GI50 (RXF 393): 14.2 µM (inactive)
- GI50 (M19-MEL): 16.4 µM (inactive)
- GI50 (SF-295): 7.31 µM (inactive)
- GI50 (DLD-1): 6.84 µM (inactive)
- GI50 (HCC 2998): 6.19 µM (inactive)
- GI50 (SN12C): 11.2 µM (inactive)
- GI50 (SF-268): 6.93 µM (inactive)
- GI50 (HCT-116): 6.35 µM (inactive)
- GI50 (KM-20L2): 5.04 µM (inactive)
- GI50 (LOX IMVI): 10.3 µM (inactive)
- GI50 (UO-31): 10.3 µM (inactive)
- GI50 (SK-MEL-5): 20 µM (inactive)
- GI50 (HL-60): 2.24 µM (inactive)
- GI50 (SNB-75): 11.9 µM (inactive)
- GI50 (CCRF-CEM): 5.87 µM (inactive)
- GI50 (EKVX): 13 µM (inactive)
- GI50 (SK-MEL-28): 20.4 µM (inactive)
- GI50 (SK-MEL-2): 21 µM (inactive)
- GI50 (HCT-15): 4.5 µM
- GI50 (NCI-H23): 14.9 µM (inactive)
- GI50 (LXFL 529): 4.46 µM (inactive)
- GI50 (U-251): 8.34 µM (inactive)
- GI50 (NCI-H460): 3.69 µM (inactive)
- GI50 (XF498): 10.4 µM (inactive)
- GI50 (UACC-257): 18.3 µM (inactive)
- GI50 (M14): 12.5 µM (inactive)

SMILES: Cc1cc(=O)oc2c(C)c(OCCCOc3ccc4c(C)cc(=O)oc4c3C)ccc12
- GI50 (SF-539): > 100 µM (inactive)
- GI50 (K562): > 100 µM (inactive)
- GI50 (NCI-H522): > 100 µM (inactive)
- GI50 (CAKI-1): > 100 µM (inactive)
- GI50 (HOP-18): > 100 µM (inactive)
- GI50 (MOLT-4): > 100 µM (inactive)
- GI50 (SK-OV-3): > 100 µM (inactive)
- GI50 (UACC-62): > 100 µM (inactive)
- GI50 (SNB-78): > 100 µM (inactive)
- GI50 (KM12): > 100 µM (inactive)
- GI50 (DMS-273): > 100 µM (inactive)
- GI50 (OVCAR-3): > 100 µM (inactive)
- GI50 (TK-10): > 100 µM (inactive)
- GI50 (RPMI-8226): > 100 µM (inactive)
- GI50 (786-0): > 100 µM (inactive)
- GI50 (IGROV-1): > 100 µM (inactive)
- GI50 (A549): > 100 µM (inactive)
- GI50 (SR): > 100 µM (inactive)
- GI50 (OVCAR-5): > 100 µM (inactive)
- GI50 (DMS-114): > 100 µM (inactive)
- GI50 (HOP-92): 65.9 µM (inactive)
- GI50 (Malme-3M): > 100 µM (inactive)
- GI50 (OVCAR-8): > 100 µM (inactive)
- GI50 (SW-620): > 100 µM (inactive)
- GI50 (SNB-19): > 100 µM (inactive)
- GI50 (A498): > 100 µM (inactive)
- GI50 (HOP-62): > 100 µM (inactive)
- GI50 (M19-MEL): > 100 µM (inactive)
- GI50 (SF-295): > 100 µM (inactive)
- GI50 (DLD-1): > 100 µM (inactive)
- GI50 (SF-268): > 100 µM (inactive)
- GI50 (HCT-116): > 100 µM (inactive)
- GI50 (KM-20L2): > 100 µM (inactive)
- GI50 (LOX IMVI): > 100 µM (inactive)
- GI50 (UO-31): > 100 µM (inactive)
- GI50 (HT-29): > 100 µM (inactive)
- GI50 (SK-MEL-5): > 100 µM (inactive)
- GI50 (HL-60): > 100 µM (inactive)
- GI50 (CCRF-CEM): > 100 µM (inactive)
- GI50 (EKVX): > 100 µM (inactive)
- GI50 (SK-MEL-28): > 100 µM (inactive)
- GI50 (SK-MEL-2): > 100 µM (inactive)
- GI50 (HCT-15): > 100 µM
- GI50 (NCI-H23): > 100 µM (inactive)
- GI50 (LXFL 529): > 100 µM (inactive)
- GI50 (U-251): > 100 µM (inactive)
- GI50 (NCI-H460): > 100 µM (inactive)
- GI50 (XF498): > 100 µM (inactive)
- GI50 (UACC-257): > 100 µM (inactive)
- GI50 (M14): > 100 µM (inactive)

Source: ChEMBL document CHEMBL1201862, “PubChem BioAssay data set” (2004)
